Results: US5888744A, “Detection and separation of aminoglycosides by binding to immobilized lysozyme or α-lactalbumin” (The United States of America, as represented by the …, priority 1995, dated 1999)
Where two headings read alike, the source gives them in different places. Each block holds one compound with its values, some of them ahead of it.

How the values were obtained:
[1] = molecular target: lysozyme (Gallus gallus, UniProt P00698); assay: competitive binding assay, spectinomycin-FITC tracer and latex lysozyme-particles (particle concentration fluorescent assay); settings: for displacement or competition for the binding sites (bound spectinomycin-FITC): spectinomycin-FITC 4.9 ng and 2.45 ng
Procedure: This example illustrates the development of an aminoglycoside competitive binding assay using spectinomycin as the test aminoglycoside to confirm the presence of aminoglycosides in aqueous tissue extracts. Lysozyme is immobilized onto latex particles using the following method. Carboxylated latex particles are dispersed by sonication, 10 pulses of 75% duty cycle using power 3. Aliquots of 0.2 ml particles are transferred into 10 ml conical polypropylene tubes. The carboxyls are activated by adding 150 mg N-ethyl-N^3 (3-dimethylaminopropyl)-carbodiimide hydrochloride (EDC) and allowed to stand for approximately 15-20 minutes at approximately room temperature. Two ml of 0.1 mg/ml lysozyme in pH 7, 0.1M phosphate buffer is heated at […] for approximately 30 minutes and then is added to the activated particles drop by drop while mixing gently. The mixture is incubated at 37° C. for approximately 1.5 hours. The derivatized latex (latex-lysozyme) is centrifuged at approximately 8225×g (approximately 10,000 rpm) for approximately 5 minutes at approximately 4° C. The supernatant is assayed for protein content and compared with initial protein concentration using a Biorad protein assay. The latex-lysozyme is washed twice with 2 ml of pH 7 phosphate buffer and centrifuged at approximately 3,000×g for approximately 10 minutes. Four ml of phosphate buffer containing 0.1% sodium azide and 0.015% Brij surfactant is added to the latex lysozyme and the mixture is sonicated with 10 pulses prior to storage at 4° C.
To prepare the label for the assay, spectinomycin base (0.01 mM) and FITC (0.02 mM) are dissolved separately in 0.5 ml of 10 mM dibasic phosphate buffer adjusted to pH 8.8 with 10 mM monobasic phosphate buffer. The mixture is mixed gently for 2 hours at room temperature prior to storage at 4° C. The labeling is carried out in brown vials or in tubes wrapped with aluminum foil to prevent photodegradation of the fluorescent compounds. Dilutions are made such that 20 μl contains approximately 5 ng spectinomycin-FITC. Completion of derivatization is screened by thin layer chromatography using 10 ml of developing solvent, methanol:chloroform:acetone:ammonium hydroxide in a ratio of 3:3:3:1. The reaction mixture is diluted in distilled water, 1:100, and applied in 1 μl quantities to TLC plates and developed for approximately 10 minutes in a 118 ml capacity round glass bottle. The derivatized compound is compared to a 0.1 μM FITC sample. […]
Binding and competition interactions are assessed using lysozyme-particles containing 0.6 pg protein in 10 μl. […] In the 2-step saturation binding assay, the displacement of the bound spectinomycin-FITC is determined by adding unlabeled spectinomycin, 20 μl of 100 ng/ml, after the 30 minute incubation with spectinomycin-FITC. […]

[2] = cited from earlier work
[3] = molecular target: T1, immobilized lysozyme (Gallus gallus, UniProt P00698); assay: affinity chromatography on immobilized lysozyme (agarose gel), fluorescamine detection; format: binding; settings: for binding by the affinity column: solubilized in water; for binding by the immobilized lysozyme: 25 ppm in water, eluted with 10 mM sodium citrate buffer, pH 4.0
Procedure: This example illustrates an affinity chromatography method for the removal of aminoglycosides from biological fluids either for purification of the aminoglycoside or purification of the fluid by removal of aminoglycosides. Lysozyme and α-lactalbumin are immobilized using Affi-Gel 10® (N-hydroxysuccinimide ester agarose gel). A 1 ml aliquot of Affi-Gel 10® is transferred to a 5 ml disposable column, the solvent is drained, and the gel is washed with 3 bed volumes of cold (4° C.) distilled, deionized water. A 2 ml aliquot of lysozyme, 25 mg/ml in 0.1M 3-(n-morpholino)-propanesulphonic acid buffer (MOPS), pH 7.0, is added to the gel within 10 minutes of the water wash. The column is capped, contents mixed to form a uniform suspension, and incubated at 4° C. for 4 hour on a rotator. After incubation, the effluent is collected to determine unbound protein using the BCA® (Bicinchoninic acid, Pierce, Rockford, IL.) method. The remaining active sites on the agarose support are blocked by incubating 1 ml of 0.1M ethylene diamine (in 0.1M MOPS, pH 7.0) with agarose support for 1 hour at 4° C. on a rotator. The gel is washed with MOPS to remove any unbound material (OD280nm =0). α-lactalbumin is solubilized in 0.1M MOPS, 80 mM calcium chloride, pH 7.0 and is immobilized on Affi-Gel® using the same procedure described above for lysozyme.
Affinity columns are prepared by adding 1 ml of agarose gel containing immobilized enzyme to 5 ml disposable columns and draining the solvent. The gel is washed with three bed volumes of cold (4° C.) distilled, deionized water. The immobilized lysozyme is activated by washing the gel with 2 ml of 0.1M NaOH at a flow rate of 1 ml/min followed by 4 bed volumes of cold (4° C.) distilled, deionized water to remove NaOH. […] Aqueous solutions of Hygromycin B, concentrations of 1-100 ppm in distilled deionized water, are applied to the affinity columns and allowed to flow by gravity at approximately 1 ml/min. The flow through was collected to determine the amount of unbound hygromycin B. The columns are washed using four 1.0 ml aliquots of water followed by four 1.0 ml aliquots of 10 mM sodium citrate buffer, pH 4.0. The fluorescence of all fractions are determined as described below. Approximately 29 mg of lysozyme (approximately 53% immobilization efficiency; n=12) and 18 mg of α-lactalbumin (approximately 36% immobilization efficiency; n=7) are immobilized per ml of agarose gel using a 4 hour incubation time.
Aminoglycosides can be detected by fluorescence derivatization using fluorescamine (De Silva et al, Anal. Chem., Vol. 47, 714-718, 1975, herein incorporated by reference). The fluorescence assay has a detection limit of 5 ppm for hygromycin B in citrate. […] The affinity column also binds neomycin B, gentamicin, streptomycin, and dihydrostreptomycin. The fluorescence is detected using a Perkin Elmer luminescence spectrometer at an excitation of 395 nm and an emission of 485 nm. In some cases, TLC analysis (Medina et al, IN Residues of Veterinary Drugs in Food, Haagsma et al ED., Proc. EuroResidue II Conference, Veldhoven, The Netherlands, May 3-5, 1993; J. Chromatography, Vol. 663, 127-135, 1995, both herein incorporated by reference) is performed using the eluate from the affinity columns. The solvent is evaporated from the eluates, the samples reconstituted 1:1 using 95% ethanol, and applied to a Whatman LHK-PD silica gel plate with preabsorbant zones (10×10 cm; 9 lanes). The gel plate is developed for approximately 20 minutes with acetone/ethanol/ammonium hydroxide; 1:1:1, dried in a vacuum oven, cooled to room temperature, and dipped for approximately 4 seconds in 0.02% fluorescamine (acetone/hexane; 1:14). The plate is dried, sprayed lightly with 0.2M sodium citrate buffer, pH 3.0-5.0, with optimal signal at approximately pH 4.0, and the fluorescent bands are detected using an ultraviolet light box at a wavelength of 365 nm. […]

[4] = molecular target: T1, immobilized lysozyme; assay: as above; format: binding; settings: in adulterated biological fluids, without prior deionization
[5] = molecular target: T2, immobilized α-lactalbumin (Bos taurus, UniProt P00711); assay: affinity chromatography on immobilized α-lactalbumin (agarose gel), fluorescamine detection; format: binding
T2 sequence (P00711 20-142): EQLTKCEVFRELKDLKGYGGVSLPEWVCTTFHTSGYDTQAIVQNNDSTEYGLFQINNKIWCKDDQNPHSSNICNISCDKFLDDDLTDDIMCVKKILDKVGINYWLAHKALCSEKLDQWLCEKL
Procedure: This example illustrates an affinity chromatography method for the removal of aminoglycosides from biological fluids either for purification of the aminoglycoside or purification of the fluid by removal of aminoglycosides. Lysozyme and α-lactalbumin are immobilized using Affi-Gel 10® (N-hydroxysuccinimide ester agarose gel). A 1 ml aliquot of Affi-Gel 10® is transferred to a 5 ml disposable column, the solvent is drained, and the gel is washed with 3 bed volumes of cold (4° C.) distilled, deionized water. A 2 ml aliquot of lysozyme, 25 mg/ml in 0.1M 3-(n-morpholino)-propanesulphonic acid buffer (MOPS), pH 7.0, is added to the gel within 10 minutes of the water wash. The column is capped, contents mixed to form a uniform suspension, and incubated at 4° C. for 4 hour on a rotator. […]
Affinity columns are prepared by adding 1 ml of agarose gel containing immobilized enzyme to 5 ml disposable columns and draining the solvent. […] The fluorescence of all fractions are determined as described below. […]
Aminoglycosides can be detected by fluorescence derivatization using fluorescamine (De Silva et al, Anal. Chem., Vol. 47, 714-718, 1975, herein incorporated by reference). The fluorescence assay has a detection limit of 5 ppm for hygromycin B in citrate. […] The fluorescence is detected using a Perkin Elmer luminescence spectrometer at an excitation of 395 nm and an emission of 485 nm. […]

[6] = molecular target: immobilized rat albumin (Rattus norvegicus, UniProt P02770); assay: binding by immobilized rat albumin (preliminary results)

displacement or competition for the binding sites (bound spectinomycin-FITC) ([1]; 1-step equilibrium assay, 20 ng unlabeled spectinomycin): 34% | competition of unlabeled drug for the binding sites ([1]; 1-step equilibrium assay, dilute spectinomycin-FITC (1.22 ng)): 78% | displacement or competition for the binding sites (bound spectinomycin-FITC) ([1]; 2-step assay, 20 ng unlabeled spectinomycin added): 96% | displacement of bound spectinomycin-FITC ([1]; 2-step assay, dilute spectinomycin-FITC (1.22 ng)): not displaced
Compound: CN[C@@H]1[C@H](O)[C@H](NC)[C@H]2O[C@@]3(O)C(=O)C[C@@H](C)O[C@H]3O[C@@H]2[C@H]1O [spectinomycin]

Compound: Neomycin
loss of activity of residues in eggs ([2]; eggs): 25% | loss of activity of residues in eggs ([2]; frying eggs): little or no loss of activity | loss of activity of residues in eggs ([2]; soft boiling and hard boiling): little or no loss of activity

binding to the lysozyme affinity column (qualitative) [3]: binds
Compound: CN[C@@H]1[C@H](O[C@H]2[C@H](O[C@H]3[C@H](O)[C@@H](O)[C@H](NC(=N)N)[C@@H](O)[C@@H]3NC(=N)N)O[C@@H](C)[C@]2(O)CO)O[C@@H](CO)[C@H](O)[C@H]1O [dihydrostreptomycin]

Compound: CN[C@@H]1C[C@H](N)[C@@H](O)[C@H](O[C@H]2O[C@H](CO)[C@H](O)[C@@H]3O[C@@]4(O[C@@H]23)O[C@H]([C@H](N)CO)[C@H](O)[C@H](O)[C@H]4O)[C@H]1O [Hygromycin B]
binding to immobilized lysozyme [4]: does not bind | binding by the affinity column ([3]; 10 ppm (5 ml)): completely bound | binding by the immobilized lysozyme [3]: completely bound | binding by the affinity column ([3]; 60 ppm (10 ml)): completely bound | binding capacity ([3]; immobilized lysozyme): 0.5 mg per ml of affinity gel | difference in binding capacity, lysozyme vs α-lactalbumin ([3]; per ml of affinity gel): 5 fold | binding capacity ([5]; immobilized α-lactalbumin): 0.1 mg per ml of affinity gel | binding by immobilized rat albumin [6]: binding

Compound: [H]/N=C(/N)N[C@H]1[C@H](O)[C@@H](O)[C@H](O[C@@H]2O[C@@H](C)[C@](O)(C=O)[C@H]2O[C@@H]2O[C@@H](CO)[C@H](O)[C@@H](O)[C@@H]2NC)[C@@H](N/C(N)=N\[H])[C@@H]1O [streptomycin]
binding to the lysozyme affinity column (qualitative) [3]: binds

Compound: NC[C@@H]1O[C@H](O[C@H]2[C@@H](O)[C@H](O[C@@H]3[C@@H](O)[C@H](N)C[C@H](N)[C@H]3O[C@H]3O[C@H](CN)[C@@H](O)[C@H](O)[C@H]3N)O[C@@H]2CO)[C@H](N)[C@@H](O)[C@@H]1O [neomycin B]
binding to the lysozyme affinity column (qualitative) [3]: binds | binding by the immobilized lysozyme [3]: completely bound

Compound: gentamicin
binding to the lysozyme affinity column (qualitative) [3]: binds | binding by the immobilized lysozyme [3]: completely bound | binding by immobilized α-lactalbumin (qualitative) ([5]; FIG. 4): incomplete binding
